In US20230405151A1, “USE OF IRAK4 MODULATORS FOR GENE THERAPY” (Genzyme Corporation, priority 2022, published 2023):

Test system: C57BL/6J mice injected with AAV (LacZ transgene)
Assay: In vivo mouse AAV model: CD8 TEM and lacZ tetramer staining of PBMCs and splenocytes
Conditions: chow 100 mg/kg from 15 days prior to AAV, versus AAV group
Description: In-vivo mice experiments. C57BL/6J mice were purchased from Jackson Laboratories. 6-8-week male mice were divided into 3 groups—PBS group, AAV group and AAV+IRAK4 group all groups with 10 mice each. Zimlovisertib IRAK4 inhibitor (Synonyms: PF-06650833) Cat. No.: HY-19836 (MedChemExpress) was mixed with mouse chow Catalog #2016, Teklad Global 16% Protein Rodent Diets https://www.inotivco.com/rodent-natural-ingredient-2016-diets at a dose of 30 mg/kg. AAV+IRAK4 group was fed the chow with Zimlovisertib IRAK4 inhibitor 15 days prior to AAV injection whereas PBS and AAV group were fed with mouse chow Catalog #2016, Teklad Global 16% Protein Rodent Diets https://www.inotivco.com/rodent-natural-ingredient-2016-diets. PBS group mice were injected intramuscularly with 100 ul PBS, AAV group was injected intramuscularly with 1e11 vg per quadricep muscle of both legs, 100 ul volume.
The same experiment design was followed with n=6 mice in each group PBS group, AAV group and AAV+IRAK4 degrader PROTAC IRAK4 degrader-1 Cat. No.: HY-129966 (MedChemExpress) that was mixed with chow at 100 mg/kg and fed to mice 15 days prior to AAV injection. […] AAV capsid used in the study had LacZ transgene. All animal experiments were conducted in accordance with the Institutional Animal Care and Use Committees at Sanofi, Framingham. Submandibular bleeds were performed weekly, and necropsy was performed three weeks post AAV injection.
PBMC isolation and surface staining. 120 ul blood was collected in K2EDTA coated tubes. The blood was mixed with DBPS at 1:1 ration and pipetted into a separate tube containing Ficoll (GE17-5442-02) to ensure no mixing of the blood and Ficoll phases. The mixture was centrifuged at 2000 RPM for 25 minutes at room temperature (9 acceleration and no braking). The buffy coat containing the peripheral blood mononuclear cells (PBMCs) was collected, transferred to a new tube, and centrifuged for five minutes at 400 RCF. PBMCs were washed three times with phosphate buffered saline (PBS) containing 1% fetal bovine serum (FBS) or fetal calf serum (FCS) and counted. The PBMC cells thus obtained were stained with different antibodies to quantify percentage of different immune cell subsets in peripheral blood.
PBMC CD8 TEM and lacZ tetramer staining. The PBMC was isolated from ˜120 μl of mouse blood, and it was transferred to a 96-well U-bottom plate. […]

SMILES: Cn1c(=O)n(C2CCC(=O)NC2=O)c2cccc(C#CCOC3CCN(C[C@H]4CC[C@H](n5cc(NC(=O)c6cnn7ccc(N8C[C@H]9C[C@@H]8CO9)nc67)c(C(F)F)n5)CC4)CC3)c21 (some centres unmarked) [KT-474]
- LacZ tetramer positive (transgene LacZ specific CD8 T) cells in PBMCs (14 days post AAV injections): reduced significantly
- LacZ tetramer positive (transgene LacZ specific CD8 T) cells in spleen (21 days post AAV injections): reduced significantly
